The text below walks through data of PMC7825173, “4’-O-Methylbroussochalcone B as a novel tubulin polymerization inhibitor suppressed the proliferation and migration of acute myeloid leukaemia cells” (BMC Cancer, 2021).

For one experiment, the system named is CESS cells. Nature of the experiment: MTT antiproliferative assay, CESS cells. The experiment is classed as cell-based, human. The following applies: 72 h. As for the experimental part:
(§1) Cells were grown in a 5% CO2 incubator at 37 °C. We used trypsin to digest cells in logarithmic growth phase. Then, we plated the cells in 96-well plates at 5000 cells per well evenly. After cell adherence, chalcones were added in the 96-well plates for 48 h or 72 h. We added MTT reagent to each well and incubated for 2 h in the incubator. Finally, the absorbance value was measured at 490 nm after treatment with DMSO.
For orientation: Formazan colour is commonly taken as a measure of viable cells.

In a further experiment the test system is β-tubulin. Nature of the experiment: Immunofluorescence staining of β-tubulin in ML-2 cells. The experiment is classed as cell-based, human. The conditions noted are these: 1 μM and 2 μM, 24 h. As for the experimental part: ML-2 cells were seeded into 6-well plates and then treated with 4′-O-Methylbroussochalcone B for 24 h. ML-2 cells were washed with phosphate buffer solution (PBS), and then fixed in 4% paraformaldehyde. After blocking for 0.5 h in 5% goat serum albumin, ML-2 cells were incubated with anti-β-tubulin for 2 h. Then, ML-2 cells were washed by PBS and labeled by 4, 6-diamidino-2-phenylindole.

For experiment [1], the system named is OCI-AML5 cells. Nature of the experiment: MTT antiproliferative assay, OCI-AML5 cells. The experiment is classed as cell-based, human. The conditions noted are these: 72 h. How it is done:
as §1

Experiment [2] has as its system OCI-AML5 cells. Nature of the experiment: Transwell migration assay, OCI-AML5 cells. The experiment is classed as cell-based, human. The conditions noted are these: 24 h. How it is done:
(§2) The cells (100 μl, 1 × 10^6 cells/ml) were suspended in the medium which contained 0.1% FBS and plated to the upper chamber of the transwell. The lower wells were incubated with the addition of the medium (600 μl per well), which included CCL25 (100 ng/ml; Cedarlane Laboratories, Burlington, Canada) and 0.1% FBS. The cells were hatched for 24 h at 37 °C with 5% CO2. Finally, the cells in the lower chamber were counted under a light microscope.

Experiment [3] concerns ML-2 cells. Nature of the experiment: Apoptosis assay (Annexin V-FITC/PI flow cytometry), ML-2 cells. The experiment is classed as cell-based, human. The following applies: 48 h. As for the experimental part:
(§3) ML-2 cells and OCI-AML5 cells were seeded in 6-well culture plates and treated with certain concentration of 4′-O-Methylbroussochalcone B for 48 h. Cells were harvested and suspended in binding buffer containing Annexin V-FITC (0.5 mg/mL) and PI (0.5 mg/mL) then. After that, samples were incubated for 25 min in dark and analyzed with flow cytometry (Becton, Dickinson and Company, NJ).
On the technique in general: In flow cytometry, cells or beads pass a laser one at a time.

The next experiment deals with tubulin. Nature of the experiment: Tubulin polymerization assay in vitro. The conditions noted are these: 2 mg/mL tubulin, 60 min, 37 °C; read-out: IC50, inhibition of tubulin polymerization. The experiment is classed as biochemical. As for the experimental part: An amount of 2 mg/mL tubulin was resuspended in PEM buffer, consisted of 80 mM PIPES (pH 6.9), 2 mM MgCl2, 0.5 mM EGTA, and 15% glycerol. 4′-O-Methylbroussochalcone B (1 μM, 3 μM and 6 μM) was preincubated on ice. The reaction was monitored by a spectrophotometer in absorbance at 340 nm at 37 °C.
The tubulin assembly assay measured the extent of assembly of 2 mg/mL tubulin after 60 min at 37 °C. Data are presented as mean from three independent experiments.
The tubulin assembly assay measured the extent of assembly of 2 mg/mL tubulin after 60 minutes at 37 °C. Data are presented as mean from three independent experiments.

The subject of experiment [4] is colchicine binding site of β-tubulin. The experiment is described as follows: EBI competition assay in ML-2 cells. The experiment is classed as cell-based, human. The conditions noted are these: preincubation at 10 μM, Western Blot. How it is done: ML-2 cells were seeded in 6-well plates for 24 h. 4′-O-Methylbroussochalcone B and colchicine treated them for 2 h respectively. Then, EBI were added. After 90 min, ML-2 cells were harvested to do Western Blot analysis. The signals were then visualized using chemiluminescent substrate (Zhengzhou research company, Zhengzhou, China).
Background: A western blot detects proteins with antibodies after separation by electrophoresis.

For experiment [5], the system named is OCI-AML5 cells. The experiment is described as follows: Cell cycle assay, OCI-AML5 cells. The experiment is classed as cell-based, human. The conditions noted are these: 2 μM and 4 μM, 48 h. As for the experimental part: (§4) The samples of fixed cells were stained with 50 μg/ml Propidium iodide (PI, Sigma) in the dark for 30 min at room temperature, following the manufacturer’s protocol. Then the samples were tested by flow cytometer (Becton, Dickinson and Company, NJ). Data were analyzed via CellQuest software.

For experiment [6], the system named is ML-2 cells. Nature of the experiment: Transwell migration assay, ML-2 cells. The experiment is classed as cell-based, human. The conditions noted are these: 24 h. As for the experimental part: as §2
For experiment [7], the system named is ML-2 cells. Nature of the experiment: Cell cycle assay, ML-2 cells. The experiment is classed as cell-based, human. The conditions noted are these: 2 μM and 4 μM, 48 h. As for the experimental part:
as §4

Experiment [8] concerns OCI-AML5 cells. Nature of the experiment: Apoptosis assay (Annexin V-FITC/PI flow cytometry), OCI-AML5 cells. The experiment is classed as cell-based, human. The following applies: 48 h. How it is done:
as §3

In the next experiment the test system is GDM-1 cells. The experiment is described as follows: MTT antiproliferative assay, GDM-1 cells. The experiment is classed as cell-based, human. The following applies: 72 h; for cell proliferation rate: 16 μM. How it is done: as §1
Experiment [9] relates to ML-2 cells. Nature of the experiment: MTT antiproliferative assay, ML-2 cells. The experiment is classed as cell-based, human. The conditions noted are these: 72 h. As for the experimental part: as §1

As usually defined, the IC50 is the concentration that inhibits the measured activity by half. For 4′-O-Methylbroussochalcone B, the IC50 with CESS cells came to 4.2 µM; in the experiment with OCI-AML5 cells [1] it was 2.03 µM; with tubulin, 2.86 µM; in the experiment on GDM-1 cells, 3.57 µM; in the experiment on ML-2 cells [9], 1.16 µM. Moreover, the “expression of β-tubulin (immunofluorescence)” value with β-tubulin is listed as “suppressed in a concentration-dependent manner”. In addition, the cell migration entry in the experiment on OCI-AML5 cells [2] and in the experiment on ML-2 cells [6] was “evidently inhibited” in each case. Moreover, the “percentage of apoptotic cells (early and late phase)” value turned out to be 13.68% in the experiment with ML-2 cells [3] (2 μM) and 55.04% in the experiment with ML-2 cells [3] (4 μM). Besides, the “formation of EBI: β-tubulin adduct” value in experiment [4] was “prevented the formation of EBI: β-tubulin adduct”. For the same molecule, the “cell cycle distribution (G2-M phase)” value in the experiment on OCI-AML5 cells [5] and in the experiment on ML-2 cells [7] was “arrested in the G2-M phase significantly” in each case. Moreover, the apoptotic rate in the experiment on OCI-AML5 cells [8] (2 μM) amounted to 12.84%; in the experiment with OCI-AML5 cells [8] (4 μM), 24.13%. In the experiment on GDM-1 cells, the cell proliferation rate is reported as 8.14%.
Turning to `CC1(C)C=Cc2cc(C(=O)/C=C/c3ccc(O)cc3)c(O)cc2O1` [Bavachromene], the IC50 in the experiment on tubulin was determined as 3.11 ± 0.1 µM. In the experiment with GDM-1 cells, this molecule had a cell proliferation rate of 29.40%.
Turning to `CC(C)=CCc1cc(C(=O)/C=C/c2ccc(O)cc2)c(O)cc1O` [Broussochalcone B], in the experiment with tubulin, the IC50 was determined as 5.13 ± 0.45 µM. Further, the cell proliferation rate in the experiment with GDM-1 cells stood at 29.67%.
For the molecule `CC1(C)CCc2c(ccc(C(=O)/C=C/c3ccc(O)cc3)c2O)O1` [Dorsmanin A], in the experiment on tubulin, the IC50 came to 4.39 ± 0.26 µM. The same molecule returned a cell proliferation rate with GDM-1 cells of 36.67%.
The matching figures for `CC(C)=CCc1c(O)ccc(C(=O)/C=C/c2ccc(O)cc2)c1O` [Isobavachalcone]: 6.38 ± 0.12 µM and 57.33%.
On to `CC1(C)C=Cc2c(ccc(C(=O)/C=C/c3ccc(O)cc3)c2O)O1` [Isobavachromene], for which the IC50 in the experiment with tubulin was found to be 8.24 ± 0.74 µM. Moreover, the cell proliferation rate with GDM-1 cells is 69.00%.
